This is an account of results in ChEMBL document CHEMBL1135899, “Design, synthesis, and evaluation of opioid analogues with non-peptidic beta-turn scaffold: enkephalin and endomorphin mimetics” (J Med Chem, 2002).

One assay concerns the target Opioid receptor (Rattus norvegicus, UniProt P33533+P34975+P33535). In words: Inhibition of [3H]-Naloxone binding to opioid receptor in rat cerebral cortex. It counts as tissue-based.
The target of assay [1] is T1, Opioid receptor (Rattus norvegicus) (UniProt P33533+P34975+P33535). In words: Inhibition of [3H]naloxone binding to opioid receptor in rat cerebral cortex at 1 uM. It counts as tissue-based.
T1 sequence (P33533 whole entry, looked up): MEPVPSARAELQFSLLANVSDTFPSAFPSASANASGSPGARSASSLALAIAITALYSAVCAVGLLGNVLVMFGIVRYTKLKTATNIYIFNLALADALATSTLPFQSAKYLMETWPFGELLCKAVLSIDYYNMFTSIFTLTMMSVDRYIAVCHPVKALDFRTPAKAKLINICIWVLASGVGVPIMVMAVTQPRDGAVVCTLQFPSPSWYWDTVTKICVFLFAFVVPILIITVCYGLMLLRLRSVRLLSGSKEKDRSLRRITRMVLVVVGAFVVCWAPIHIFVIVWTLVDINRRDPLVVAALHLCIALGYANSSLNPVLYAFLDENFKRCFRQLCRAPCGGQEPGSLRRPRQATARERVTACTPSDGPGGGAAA
T1 sequence (P33535 whole entry, looked up): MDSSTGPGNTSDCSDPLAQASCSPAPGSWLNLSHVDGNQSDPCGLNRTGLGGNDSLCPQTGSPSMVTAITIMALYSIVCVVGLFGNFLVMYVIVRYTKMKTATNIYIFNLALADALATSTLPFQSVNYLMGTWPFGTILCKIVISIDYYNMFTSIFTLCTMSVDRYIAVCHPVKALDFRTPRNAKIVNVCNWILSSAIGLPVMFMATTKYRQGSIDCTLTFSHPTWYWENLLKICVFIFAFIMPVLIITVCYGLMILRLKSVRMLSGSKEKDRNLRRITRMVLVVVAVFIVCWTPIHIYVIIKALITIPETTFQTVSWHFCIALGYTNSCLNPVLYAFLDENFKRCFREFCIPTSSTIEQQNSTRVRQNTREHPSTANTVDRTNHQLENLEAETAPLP
T1 sequence (P34975 whole entry, looked up): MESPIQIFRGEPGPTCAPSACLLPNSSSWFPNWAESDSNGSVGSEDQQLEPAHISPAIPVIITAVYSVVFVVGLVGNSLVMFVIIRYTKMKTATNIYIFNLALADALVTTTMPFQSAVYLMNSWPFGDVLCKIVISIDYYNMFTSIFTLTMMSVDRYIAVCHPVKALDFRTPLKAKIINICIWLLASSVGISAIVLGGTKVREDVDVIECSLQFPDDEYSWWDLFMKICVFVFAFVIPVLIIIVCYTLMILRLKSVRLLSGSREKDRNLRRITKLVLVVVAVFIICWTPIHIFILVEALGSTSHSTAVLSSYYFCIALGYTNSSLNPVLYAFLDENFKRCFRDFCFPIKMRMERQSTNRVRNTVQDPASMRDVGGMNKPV
The target of assay [2] is T1, Opioid receptor (Rattus norvegicus). In words: Inhibition of [3H]naloxone binding to opioid receptor in rat cerebral cortex at 0.1 uM. It counts as tissue-based.
For assay [3], the target named is Kappa-type opioid receptor (Homo sapiens) (UniProt P41145). In words: Ability to displace [3H]-U 69593 from human Opioid receptor kappa 1 at 0.1 uM.
Chain of Kappa-type opioid receptor (Homo sapiens) (P41145 whole entry): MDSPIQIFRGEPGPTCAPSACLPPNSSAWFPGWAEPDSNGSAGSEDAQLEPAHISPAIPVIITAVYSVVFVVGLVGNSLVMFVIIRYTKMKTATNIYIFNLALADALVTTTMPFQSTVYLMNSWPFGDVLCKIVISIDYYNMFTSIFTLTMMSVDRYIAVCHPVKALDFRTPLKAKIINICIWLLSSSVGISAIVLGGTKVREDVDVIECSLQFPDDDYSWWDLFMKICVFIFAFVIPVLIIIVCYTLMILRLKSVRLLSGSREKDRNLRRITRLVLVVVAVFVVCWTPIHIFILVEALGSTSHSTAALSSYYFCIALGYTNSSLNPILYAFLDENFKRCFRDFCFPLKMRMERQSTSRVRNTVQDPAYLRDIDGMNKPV
The target of assay [4] is Mu-type opioid receptor (Homo sapiens) (UniProt P35372). In words: Ability to displace [3H]-DAMGO from human Opioid receptor mu 1 at 0.1 uM.
Chain of Mu-type opioid receptor (Homo sapiens) (P35372 whole entry): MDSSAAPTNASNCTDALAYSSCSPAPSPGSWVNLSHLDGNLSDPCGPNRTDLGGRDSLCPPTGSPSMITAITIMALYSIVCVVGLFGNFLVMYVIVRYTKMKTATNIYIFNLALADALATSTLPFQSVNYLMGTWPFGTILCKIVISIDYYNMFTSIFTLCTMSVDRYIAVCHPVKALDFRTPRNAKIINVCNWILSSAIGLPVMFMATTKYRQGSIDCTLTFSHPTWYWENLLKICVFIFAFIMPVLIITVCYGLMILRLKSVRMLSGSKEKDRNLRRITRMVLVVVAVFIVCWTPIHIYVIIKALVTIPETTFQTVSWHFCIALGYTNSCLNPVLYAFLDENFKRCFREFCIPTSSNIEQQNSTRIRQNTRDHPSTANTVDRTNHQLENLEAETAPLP
The target of assay [5] is delta opioid receptor (Homo sapiens) (UniProt P41143). In words: Displacement of [3H]DPDPE from human delta opioid receptor at 0.1 uM.
Chain of delta opioid receptor (Homo sapiens) (P41143 whole entry, looked up): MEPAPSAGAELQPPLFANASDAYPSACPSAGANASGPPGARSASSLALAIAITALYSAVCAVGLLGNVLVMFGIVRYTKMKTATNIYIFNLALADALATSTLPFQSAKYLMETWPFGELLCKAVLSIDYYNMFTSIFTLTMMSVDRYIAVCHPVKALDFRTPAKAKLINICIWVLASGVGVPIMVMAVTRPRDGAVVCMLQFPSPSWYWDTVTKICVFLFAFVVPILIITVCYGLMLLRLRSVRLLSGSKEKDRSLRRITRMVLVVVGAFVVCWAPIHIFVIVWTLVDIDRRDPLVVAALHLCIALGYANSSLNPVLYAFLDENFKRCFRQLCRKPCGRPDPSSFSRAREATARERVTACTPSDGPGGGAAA
In assay [6] the target is Mu-type opioid receptor (Homo sapiens) (UniProt P35372). In words: Ability to displace [3H]DAMGO from human Opioid receptor mu 1 at 0.1 uM.

On Opioid receptor, `O=C1[C@H](Cc2ccccc2)N2C(=O)CCN(C(=O)OCCc3ccc(O)cc3)[C@H]2CN1CCc1ccccc1` yielded an IC50 of 80 nM. Moreover, the inhibition in assay [1] was 96%.
The like results for `CCCCCNC(=O)[C@H](CCc1ccccc1)NC(=O)CCNC(=O)OCCc1ccc(O)cc1` were, in that order, greater than 1000 nM and less than 10%.
`CCCCCN1C[C@@H]2N(C(=O)OCCc3ccc(O)cc3)CCC(=O)N2[C@@H](CCc2ccccc2)C1=O` returned a half-maximal inhibitory concentration (IC50) at Opioid receptor of 27 nM. For the same compound, the inhibition stood at 79% in assay [2] and 99% in assay [1]. Further, the Selectivity in assay [3] was less than 10%; in assay [4], 91%; in assay [5], less than 10%.
On Opioid receptor, `O=C1[C@H](CCc2ccccc2)N2C(=O)CCN(C(=O)OCCc3ccc(O)cc3)[C@H]2CN1CCc1ccccc1` showed an IC50 of 9 nM. The inhibition in assay [2] came out at 91%. For the same compound, the values for the Selectivity in assay [3], in assay [6] and in assay [5] were less than 10%, 101% and less than 10%, respectively.
On Opioid receptor, `CCCCCN1C[C@@H]2N(C(=O)OCCc3ccc(O)cc3)CCC(=O)N2[C@@H](Cc2ccccc2)C1=O` returned an IC50 of 149 nM. Also, the inhibition in assay [1] stood at 84%.

In general, IC50 refers to the point on the concentration scale where inhibition reaches its midpoint. A high value points to weaker potency in that assay. The term inhibition denotes the change of the read-out against control, counted positive when it falls.
